Each block holds one compound with its values, some of them ahead of it.
Legend:
[1] = biological target: T1, Histone acetyltransferase KAT2B (Homo sapiens, UniProt Q92831); experiment: Inhibition of human recombinant N-terminal His-tagged PCAF histone acetyltransferase catalytic domain expressed in Escherichia coli BL21 D3 using biotinylated histone H3 as substrate at 50 uM after 10 mins by TR-FRET analysis relative to control
Target sequence in this assay (Q92831 whole entry, looked up, the tested form may be a part): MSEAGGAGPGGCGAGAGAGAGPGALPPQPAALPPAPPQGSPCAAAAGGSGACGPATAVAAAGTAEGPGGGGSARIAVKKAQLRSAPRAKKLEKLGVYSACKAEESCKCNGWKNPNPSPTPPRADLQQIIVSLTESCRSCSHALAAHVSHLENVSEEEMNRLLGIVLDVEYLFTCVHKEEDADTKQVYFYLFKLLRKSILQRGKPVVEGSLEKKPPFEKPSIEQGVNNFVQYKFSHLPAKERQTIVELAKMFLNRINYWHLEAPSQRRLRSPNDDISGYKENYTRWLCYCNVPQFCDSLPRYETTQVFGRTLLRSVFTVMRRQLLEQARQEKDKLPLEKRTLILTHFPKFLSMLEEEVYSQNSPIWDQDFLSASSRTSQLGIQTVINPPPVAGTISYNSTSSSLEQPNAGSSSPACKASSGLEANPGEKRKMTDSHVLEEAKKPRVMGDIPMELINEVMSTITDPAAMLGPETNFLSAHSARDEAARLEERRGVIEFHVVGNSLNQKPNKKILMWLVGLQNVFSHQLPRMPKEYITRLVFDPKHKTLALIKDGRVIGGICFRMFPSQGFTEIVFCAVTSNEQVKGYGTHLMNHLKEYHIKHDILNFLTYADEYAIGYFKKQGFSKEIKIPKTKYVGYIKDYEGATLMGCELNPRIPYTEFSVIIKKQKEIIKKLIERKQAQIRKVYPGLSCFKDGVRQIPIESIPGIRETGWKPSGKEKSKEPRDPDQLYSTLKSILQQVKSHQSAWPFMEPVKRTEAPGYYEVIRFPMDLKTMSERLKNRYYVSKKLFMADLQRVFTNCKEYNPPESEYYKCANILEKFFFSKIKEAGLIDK

[2] = biological target: T2, Histone acetyltransferase KAT2A (Homo sapiens, UniProt Q92830); experiment: Inhibition of KAT2A (362 to 837) (unknown origin) using biotinylated histone H3 as substrate after 10 mins by TR-FRET analysis relative to control
Target sequence in this assay (Q92830 whole entry): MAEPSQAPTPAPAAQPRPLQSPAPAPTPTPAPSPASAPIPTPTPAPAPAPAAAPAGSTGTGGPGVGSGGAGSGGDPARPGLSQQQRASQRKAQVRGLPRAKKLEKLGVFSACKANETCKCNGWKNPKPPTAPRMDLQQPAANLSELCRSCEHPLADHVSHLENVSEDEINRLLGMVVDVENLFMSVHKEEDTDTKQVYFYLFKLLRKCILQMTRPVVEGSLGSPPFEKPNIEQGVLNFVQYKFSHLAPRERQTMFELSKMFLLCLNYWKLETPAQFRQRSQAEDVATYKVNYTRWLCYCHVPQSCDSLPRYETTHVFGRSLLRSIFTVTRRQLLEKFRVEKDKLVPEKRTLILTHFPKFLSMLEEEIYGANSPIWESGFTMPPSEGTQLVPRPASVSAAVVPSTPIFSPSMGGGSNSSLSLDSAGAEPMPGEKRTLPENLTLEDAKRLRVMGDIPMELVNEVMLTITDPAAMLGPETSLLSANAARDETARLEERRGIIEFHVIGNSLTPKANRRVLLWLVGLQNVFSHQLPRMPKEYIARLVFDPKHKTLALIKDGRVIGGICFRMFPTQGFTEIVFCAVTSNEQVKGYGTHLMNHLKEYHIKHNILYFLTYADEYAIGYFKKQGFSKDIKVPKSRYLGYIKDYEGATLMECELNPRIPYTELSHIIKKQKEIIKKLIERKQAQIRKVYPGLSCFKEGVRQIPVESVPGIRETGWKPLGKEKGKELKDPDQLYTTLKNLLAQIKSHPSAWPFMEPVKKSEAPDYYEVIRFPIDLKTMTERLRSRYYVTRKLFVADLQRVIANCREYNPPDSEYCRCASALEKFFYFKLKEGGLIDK

[3] = biological target: T3, CREB-binding protein (Homo sapiens, UniProt Q92793); experiment: Inhibition of KAT3A (1319 to 1710) (unknown origin) using biotinylated histone H3 as substrate after 10 mins by TR-FRET analysis relative to control
Target sequence in this assay (Q92793 whole entry, the tested form may be a part): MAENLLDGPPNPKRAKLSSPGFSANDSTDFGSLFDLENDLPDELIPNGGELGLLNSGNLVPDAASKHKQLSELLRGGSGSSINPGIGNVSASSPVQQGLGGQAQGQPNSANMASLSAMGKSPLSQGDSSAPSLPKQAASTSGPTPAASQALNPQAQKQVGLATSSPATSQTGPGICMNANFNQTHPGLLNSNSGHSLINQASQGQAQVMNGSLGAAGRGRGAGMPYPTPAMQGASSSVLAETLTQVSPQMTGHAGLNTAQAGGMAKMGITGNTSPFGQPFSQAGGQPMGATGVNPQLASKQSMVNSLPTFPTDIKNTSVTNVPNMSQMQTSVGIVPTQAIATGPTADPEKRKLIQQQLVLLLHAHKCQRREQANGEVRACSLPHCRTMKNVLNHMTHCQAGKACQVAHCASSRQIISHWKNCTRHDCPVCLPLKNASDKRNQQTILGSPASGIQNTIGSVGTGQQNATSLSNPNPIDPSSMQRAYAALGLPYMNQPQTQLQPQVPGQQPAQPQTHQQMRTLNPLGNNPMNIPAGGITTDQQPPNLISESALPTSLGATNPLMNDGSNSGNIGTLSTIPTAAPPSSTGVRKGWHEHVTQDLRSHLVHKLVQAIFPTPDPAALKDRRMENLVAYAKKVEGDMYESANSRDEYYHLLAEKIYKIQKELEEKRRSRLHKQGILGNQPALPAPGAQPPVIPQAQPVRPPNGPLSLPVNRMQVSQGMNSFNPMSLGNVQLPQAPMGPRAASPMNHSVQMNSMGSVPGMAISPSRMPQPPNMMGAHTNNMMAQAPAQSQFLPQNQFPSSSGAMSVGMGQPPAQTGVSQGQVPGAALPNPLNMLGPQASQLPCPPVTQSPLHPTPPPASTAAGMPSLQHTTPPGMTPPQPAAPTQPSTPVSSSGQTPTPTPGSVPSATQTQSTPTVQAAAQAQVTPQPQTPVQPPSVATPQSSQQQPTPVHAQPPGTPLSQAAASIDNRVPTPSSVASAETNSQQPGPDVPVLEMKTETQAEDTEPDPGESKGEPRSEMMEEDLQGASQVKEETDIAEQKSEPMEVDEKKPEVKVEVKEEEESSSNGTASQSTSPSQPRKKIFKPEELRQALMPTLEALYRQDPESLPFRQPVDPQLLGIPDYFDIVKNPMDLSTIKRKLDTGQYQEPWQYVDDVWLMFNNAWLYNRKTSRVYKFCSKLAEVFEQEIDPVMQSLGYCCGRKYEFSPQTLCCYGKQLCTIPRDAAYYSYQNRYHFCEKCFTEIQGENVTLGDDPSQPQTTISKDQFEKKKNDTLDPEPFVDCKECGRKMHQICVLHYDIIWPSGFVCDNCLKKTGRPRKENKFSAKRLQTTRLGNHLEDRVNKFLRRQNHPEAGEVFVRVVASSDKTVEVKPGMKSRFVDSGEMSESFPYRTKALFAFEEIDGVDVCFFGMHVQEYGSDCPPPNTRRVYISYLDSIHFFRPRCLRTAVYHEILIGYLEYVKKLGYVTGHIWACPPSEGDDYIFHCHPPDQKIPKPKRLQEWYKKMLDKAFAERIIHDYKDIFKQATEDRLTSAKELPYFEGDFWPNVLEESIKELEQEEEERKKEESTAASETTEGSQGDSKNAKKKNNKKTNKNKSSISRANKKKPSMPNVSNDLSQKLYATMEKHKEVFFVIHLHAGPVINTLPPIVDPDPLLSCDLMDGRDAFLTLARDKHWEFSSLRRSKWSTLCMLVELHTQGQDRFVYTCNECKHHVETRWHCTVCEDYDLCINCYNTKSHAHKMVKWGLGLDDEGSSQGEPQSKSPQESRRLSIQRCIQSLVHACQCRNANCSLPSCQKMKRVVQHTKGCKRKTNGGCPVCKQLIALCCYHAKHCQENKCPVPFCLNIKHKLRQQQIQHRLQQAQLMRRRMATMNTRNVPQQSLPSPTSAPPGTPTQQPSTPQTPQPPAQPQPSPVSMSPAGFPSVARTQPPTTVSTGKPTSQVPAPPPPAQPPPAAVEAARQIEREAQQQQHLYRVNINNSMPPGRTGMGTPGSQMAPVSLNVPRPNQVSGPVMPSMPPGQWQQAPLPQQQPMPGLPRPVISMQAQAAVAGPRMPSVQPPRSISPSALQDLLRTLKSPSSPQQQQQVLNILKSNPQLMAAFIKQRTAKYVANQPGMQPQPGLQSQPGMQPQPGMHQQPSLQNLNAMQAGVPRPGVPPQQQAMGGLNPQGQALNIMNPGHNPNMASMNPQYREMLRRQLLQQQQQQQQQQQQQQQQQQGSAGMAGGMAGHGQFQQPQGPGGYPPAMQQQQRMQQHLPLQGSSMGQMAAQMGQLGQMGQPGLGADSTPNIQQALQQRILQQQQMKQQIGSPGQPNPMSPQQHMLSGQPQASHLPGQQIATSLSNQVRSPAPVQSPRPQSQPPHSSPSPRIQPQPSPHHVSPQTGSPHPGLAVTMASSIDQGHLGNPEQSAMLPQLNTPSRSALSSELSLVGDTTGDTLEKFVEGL

[4] = biological target: T1, Histone acetyltransferase KAT2B; experiment: Inhibition of human recombinant N-terminal His-tagged PCAF histone acetyltransferase catalytic domain expressed in Escherichia coli BL21 D3 using biotinylated histone H3 as substrate after 10 mins by TR-FRET analysis relative to control
Target sequence in this assay (Q92831 whole entry, the tested form may be a part): as the sequence (Q92831 whole entry, looked up, the tested form may be a part) above

[5] = biological target: T4, Histone acetyltransferase p300 (Homo sapiens, UniProt Q09472); experiment: Inhibition of KAT3B (965 to 1810) (unknown origin) using biotinylated histone H3 as substrate after 10 mins by TR-FRET analysis relative to control
[6] = biological target: T2, Histone acetyltransferase KAT2A; experiment: Inhibition of KAT2A (362 to 837) (unknown origin) using biotinylated histone H3 as substrate at 50 uM after 10 mins by TR-FRET analysis relative to control
Target sequence in this assay (Q92830 2-837 limits assumed): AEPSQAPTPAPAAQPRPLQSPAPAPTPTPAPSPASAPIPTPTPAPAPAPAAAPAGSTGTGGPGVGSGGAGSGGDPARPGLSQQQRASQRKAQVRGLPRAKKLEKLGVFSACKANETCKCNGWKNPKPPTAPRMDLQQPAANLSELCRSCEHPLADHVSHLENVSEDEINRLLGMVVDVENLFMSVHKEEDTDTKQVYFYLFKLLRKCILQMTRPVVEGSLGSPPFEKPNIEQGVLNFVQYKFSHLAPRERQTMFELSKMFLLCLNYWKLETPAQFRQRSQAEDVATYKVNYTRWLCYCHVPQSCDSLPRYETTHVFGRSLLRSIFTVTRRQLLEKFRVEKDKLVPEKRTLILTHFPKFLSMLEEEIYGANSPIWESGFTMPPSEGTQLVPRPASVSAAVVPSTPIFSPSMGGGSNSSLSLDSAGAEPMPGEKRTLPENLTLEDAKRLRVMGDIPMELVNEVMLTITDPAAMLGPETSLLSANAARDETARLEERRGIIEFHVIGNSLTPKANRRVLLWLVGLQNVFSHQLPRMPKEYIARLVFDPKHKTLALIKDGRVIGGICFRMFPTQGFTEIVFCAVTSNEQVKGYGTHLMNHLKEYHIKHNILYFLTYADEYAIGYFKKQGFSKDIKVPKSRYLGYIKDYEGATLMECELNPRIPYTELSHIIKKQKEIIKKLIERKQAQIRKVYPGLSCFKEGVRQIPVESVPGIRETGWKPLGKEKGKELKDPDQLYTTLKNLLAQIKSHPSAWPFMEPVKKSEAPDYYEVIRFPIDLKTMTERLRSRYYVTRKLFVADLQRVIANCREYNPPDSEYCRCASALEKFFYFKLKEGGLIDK

[7] = biological target: T4, Histone acetyltransferase p300; experiment: Inhibition of KAT3B (965 to 1810) (unknown origin) using biotinylated histone H3 as substrate at 50 uM after 10 mins by TR-FRET analysis relative to control
[8] = biological target: T3, CREB-binding protein; experiment: Inhibition of KAT3A (1319 to 1710) (unknown origin) using biotinylated histone H3 as substrate at 50 uM after 10 mins by TR-FRET analysis relative to control
[9] = biological target: T4, Histone acetyltransferase p300; experiment: Inhibition of KAT3B (965 to 1810) (unknown origin) using biotinylated histone H3 as substrate at 100 uM after 10 mins by TR-FRET analysis relative to control

SMILES: Cc1ccc(COc2cccc(/C=C3\SC(=S)N(CCCC(=O)O)C3=O)c2)cc1
inhibition [1]: 5%

SMILES: COC(=O)CCCCCN1C(=O)/C(=C/c2cc(OC)ccc2OC)SC1=S
inhibition [1]: 21%

SMILES: O=c1c2cccnc2sn1Cc1ccc(Cl)cc1
IC50 [2]: 89.9 µM
IC50 [3]: 1.95 µM

SMILES: CCOc1ccccc1/C=C1\SC(=S)N(CCCCCC(=O)OC)C1=O
inhibition [1]: 9%

SMILES: COc1ccc(/C=C2\SC(=S)N(CCCCCC(=O)O)C2=O)cc1Br
inhibition [1]: 8%

SMILES: O=C(O)CCCCCN1C(=O)/C(=C/c2ccc(-c3ccccc3)cc2)SC1=S
inhibition [1]: < 5%

SMILES: O=C(O)CCCCCN1C(=O)/C(=C2/C(=O)Nc3ccccc32)SC1=S
inhibition [1]: 9%

SMILES: COC(=O)CCCCCN1C(=O)/C(=C/c2ccc(C)cc2)SC1=S
inhibition [1]: 24%

SMILES: CC1=C/C(=N/Nc2ccnc3cc(Cl)ccc23)CC1
inhibition [1]: 12%

SMILES: CCCCCCOc1ccc(/C=C2\SC(=S)N(CCCC(=O)O)C2=O)cc1
inhibition [1]: 8%

SMILES: COC(=O)CCN1C(=O)/C(=C/c2cc(OC)ccc2OC)SC1=S
inhibition [1]: 8%

SMILES: O=C1Nc2ccccc2/C1=C1/SC(=S)N(CCS(=O)(=O)O)C1=O
inhibition [1]: < 5%

SMILES: CN(C)c1ccc(/C=C2\SC(=S)N(CCCCCC(=O)O)C2=O)cc1
inhibition [1]: < 5%

SMILES: Cc1cccc(NC(=O)CN2C(=O)/C(=C3\SC(=S)N(CCS(=O)(=O)O)C3=O)c3ccccc32)c1
inhibition [1]: 6%

SMILES: O=C(O)c1ccc(N2C(=O)/C(=C3/C(=O)N(Cc4ccccc4)c4ccccc43)SC2=S)cc1
inhibition [1]: 14%

Now from value to compound:

inhibition [1]: < 5%
SMILES: Cc1ccc(CN2C(=O)/C(=C3\SC(=S)N(CCS(=O)(=O)O)C3=O)c3ccccc32)cc1

IC50 [4]: 78.2 µM
IC50 [2]: 69.6 µM
IC50 [3]: 28.4 µM
IC50 [5]: 152 µM
SMILES: O=C(O)CCCCCN1C(=O)/C(=C2/C(=O)N(Cc3ccc([N+](=O)[O-])cc3)c3ccccc32)SC1=S

IC50 [4]: 28.8 µM
IC50 [2]: 54.7 µM
IC50 [3]: 40.9 µM
IC50 [5]: 61.9 µM
SMILES: COc1ccc(CN2C(=O)/C(=C3\SC(=S)N(CCCCCC(=O)O)C3=O)c3ccccc32)cc1

inhibition [1]: 8%
SMILES: Cc1ccc(CN2C(=O)/C(=C3\SC(=S)N(CCCCC(=O)O)C3=O)c3ccccc32)cc1

IC50 [4]: 97.7 µM
IC50 [2]: 210 µM
IC50 [3]: 116 µM
IC50 [5]: 244 µM
SMILES: O=C(O)CCCCCN1C(=O)/C(=C2/C(=O)N(Cc3ccc(F)cc3)c3ccccc32)SC1=S

IC50 [4]: 67.2 µM
IC50 [2]: 47 µM
IC50 [3]: 41 µM
IC50 [5]: 81 µM
SMILES: Cc1ccc(CN2C(=O)/C(=C3\SC(=S)N(CCCCCC(=O)O)C3=O)c3ccccc32)cc1

inhibition [1]: 8%
inhibition [6]: 6%
inhibition [7]: < 5%
inhibition [8]: 25%
SMILES: COC(=O)CCCCCN1C(=O)/C(=C2/C(=O)N(Cc3ccc(C)cc3)c3ccccc32)SC1=S

inhibition [1]: 6%
SMILES: CCN1C(=O)/C(=C2\SC(=S)N(CCCCCC(=O)O)C2=O)c2ccccc21

IC50 [4]: 41.8 µM
IC50 [2]: 46.4 µM
IC50 [3]: 38.5 µM
inhibition [9]: 23%
SMILES: Cc1ccc(CN2C(=O)/C(=C3\SC(=S)N(C[C@H]4CC[C@H](C(=O)O)CC4)C3=O)c3ccccc32)cc1

inhibition [1]: 5%
SMILES: CN1C(=O)/C(=C2\SC(=S)N(CCCCCC(=O)O)C2=O)c2ccccc21

inhibition [1]: 13%
SMILES: O=C(O)CCCCCN1C(=O)/C(=C2/C(=O)N(Cc3ccccc3)c3ccccc32)SC1=S

IC50 [4]: 63.7 µM
IC50 [2]: 63.5 µM
IC50 [3]: 35.9 µM
IC50 [5]: 95.3 µM
SMILES: Cc1ccc(CN2C(=O)/C(=C3\SC(=S)N(CCCCCCCC(=O)O)C3=O)c3ccccc32)cc1
